Patent EP4775577A1, “RAS INHIBITOR” (Tyligand Bioscience (Shanghai) Limited, priority 2023, dated 2025)
Structures can show the parent of a compound that is named as a salt. Where two headings read alike, the source gives them in different places.

Legend:
[1] = system: KRAS G12D mutant AGS cells; assay: Proliferation inhibition of AGS cells, CellTiter-Glo assay; assay type: cell-based, human; details: 3 days, CTG, read-out: AGS IC50/nM
Method: AGS cells (Nanjing Kebai Biotechnology Co., Ltd., catalog number CBP60476, adherent, culture medium (F12K Nutrient Mixture+10% FBS (GIBCO, Cat#10091-148) were cultured at 37°C, 5% CO2, and 95% humidity at a density of 1500 cells/well. Cells in the logarithmic growth phase were harvested and counted using a Countstar automated cell counter based on the classic trypan blue staining method to ensure cell viability was above 90%. The cell concentration was adjusted, and 80 µL of cell suspension was added to each 96-well clear flat-bottomed, black-walled plate (Greiner, Cat# 655090). The cells in the 96-well plates were then cultured at 37°C and 5% CO2.
Drug preparation for IC50 assay: A 5-fold drug solution was prepared using culture medium. 20 µL of the drug solution was added to each well of a 96-well plate seeded with cells to achieve a working concentration of up to 10 µM, with a 3 × dilution, and a total of 9 concentrations. 2 replicate wells for each drug concentration were set. The cells in the drug-treated 96-well plates were cultured at 37°C and 5% CO2 for additional 3 days and then CTG assay were performed.
The cell plate was equilibrated to room temperature for 30 minutes and the CTG reagent (CellTiter-Glo® Luminescent Cell Viability Assay (Promega, Cat# G7573)) was thawed. 50 µL of CTG solution was added to each well and the plate was shaken on an orbital shaker for 2 minutes to lyse the cells. The cell plate was placed at room temperature for 10 minutes to stabilize the cryo-luminescence signal and the cryo-luminescence value was read (EnVision® Multifunctional microplate reader, PerkinElmer #2105).
(§1) Data was analyzed using GraphPad Prism software. The dose-response-inhibition equation was used to fit the data to obtain the dose-response curve, and the IC50 value (nM) was calculated accordingly. [formula]

[2] = system: KRAS G12V mutant NCI-H727 cells; assay: Proliferation inhibition of NCI-H727 cells, 3D CellTiter-Glo assay (Method B); assay type: cell-based, human; details: Method B, 3D culture with 0.65% methylcellulose, 5 days, CTG, read-out: NCI-H727 IC50/nM
Method: NCI-H727 cells (Nanjing Kebai Biotechnology Co., Ltd., catalog number CBP60182, adherent, culture medium RPMI-1640+10%FBS (GIBCO, Cat#10091-148)) were cultured at 37°C, 5% CO2, and 95% humidity.
3D cell viability assay: Cells in the logarithmic growth phase were harvested and counted using a platelet counter. Cell viability was assessed using the trypan blue exclusion method to ensure a viability of over 90%. The 3D cell culture medium was prepared by adding 1% MC (methylcellulose, Sigma, Cat#M0512) to RPMI-1640 medium and 10% FBS. The cell concentration was adjusted to approximately 25,000 cells/mL using the 3D medium, and the methylcellulose (MC) content was set to 0.65%. Then, 80 µL of cell suspension was added to each 96-well clear, flat-bottomed, black-walled plate (Greiner, Cat# 655096). The cells in the 96-well plates were cultured overnight at 37°C and 5% CO2.
Drug preparation for IC50 assay: A 5-fold drug solution was prepared using culture medium. 20 µL of the drug solution was added to each well of a 96-well plate seeded with cells to achieve a working concentration of up to 10 µM, with a 3× dilution, and 9 concentrations. 2 replicate wells for each drug concentration were set. The cells in the drug-treated 96-well plates were cultured at 37°C and 5% CO2 for additional 5 days, then CTG assay (CellTiter-Glo® Luminescent Cell Viability Assay (Promega, Cat#G7573)) were performed.
The cell plate was equilibrated to room temperature for 30 minutes and the CTG reagent was thawed. 50 µL of CTG solution was added to each well for detection and the plate was shaken on an orbital shaker for 5 minutes to lyse the cells. The cell plate was then placed at room temperature for 25 minutes to stabilize the cryo-luminescence signal, and the cryo-luminescence value was read (EnVision® multi-plate reader, PerkinElmer#2105).
as §1

CN1CC[C@H](C(F)F)[C@](C)(COc2nc(N3CCC[C@@](C)(O)C3)c3cc(C(F)(F)F)c(-c4cccc5sc(N)c(C#N)c45)c(F)c3n2)C1 (atropisomer, axis not shown) [Example 3A, (R)-2-amino-4-(2-(((3S,4S)-4-(difluoromethyl)-1,3-dimethylpiperidine-3-yl)methoxy)-8-fluoro-4-((R)-3-hydroxy-3-methylpiperidine-1-yl)-6-(trifluoromethyl)quinazoline-7-yl)benzo[b]thiophene-3-carbonitrile]
IC50 ([1]; Homo sapiens, AGS, 72 h): 112 nM
IC50 ([2]; Homo sapiens, NCI-H727, 120 h): 40.7 nM

CN1CC/C(=C\F)[C@](C)(COc2nc(N3CCC[C@@](C)(O)C3)c3cc(C(F)(F)F)c(-c4cccc5sc(N)c(C#N)c45)c(F)c3n2)C1 (atropisomer, axis not shown) [Example 4A, (R)-2-amino-4-(8-fluoro-2-(((S,E)-4-(fluoromethylene)-1,3-dimethylpiperidine-3-yl)methoxy)-4-((R)-3-hydroxy-3-methylpiperidine-1-yl)-6-(trifluoromethyl)quinazoline-7-yl)benzo[b]thiophene-3-carbonitrile]
IC50 ([1]; Homo sapiens, AGS, 72 h): 148 nM
IC50 ([2]; Homo sapiens, NCI-H727, 120 h): 66.9 nM

[2H]C([2H])([2H])N1CC/C(=C\F)[C@](C)(COc2nc(N3Cc4cc(C(=O)N(C)CCOC)nn4CC[C@@H]3C)c3cc(CC)c(-c4c(F)ccc5sc(N)c(C#N)c45)c(F)c3n2)C1 (atropisomer, axis not shown) [Example 267A]
IC50 ([1]; Homo sapiens, AGS, 72 h): 4.4 nM
IC50 ([2]; Homo sapiens, NCI-H727, 120 h): 3.9 nM

CN1CC/C(=C\F)[C@](C)(COc2nc(N3CCOC[C@@](C)(O)C3)c3cc(Cl)c(-c4c(F)ccc5sc(N)c(C#N)c45)c(F)c3n2)C1 (atropisomer, axis not shown; (Ra)) [Example 85A, (Ra)-2-amino-4-(6-chloro-8-fluoro-2-(((S,E)-4-(fluoromethylene)-1,3-dimethylpiperidine-3-yl)methoxy)-4-((S)-6-hydroxy-6-methyl-1,4-oxazacycloheptane-4-yl)quinazoline-7-yl)-5-fluorobenzo[b]thiophene-3-carbonitrile formate·formic acid salt]
IC50 ([1]; Homo sapiens, AGS, 72 h): 22.7 nM
IC50 ([2]; Homo sapiens, NCI-H727, 120 h): 17.4 nM

CN1CC[C@H](C(F)F)[C@](C)(COc2nc(N3CCOC[C@@](C)(O)C3)c3cc([N+](=O)[O-])c(-c4cccc5sc(N)c(C#N)c45)c(F)c3n2)C1 (atropisomer, axis not shown; (Ra)) [Example 86A]
IC50 [1]: 4.9 nM
IC50 [2]: 1.9 nM

CN1CC/C(=C\F)[C@](C)(COc2nc(N3CCOC[C@@](C)(O)C3)c3cc([N+](=O)[O-])c(-c4cccc5sc(N)c(C#N)c45)c(F)c3n2)C1 (atropisomer, axis not shown; (Ra)) [Example 87A]
IC50 [2]: 3.8 nM

CN1CC[C@H](C(F)F)[C@](C)(COc2nc(N3CCOC[C@@](C)(O)C3)c3cc(C(F)(F)F)c(-c4c(F)ccc5sc(N)c(C#N)c45)c(F)c3n2)C1 (single isomer, unassigned) [Example 65A]
IC50 [2]: < 1.5 nM

CN1CC[C@H](C(F)F)[C@](C)(COc2nc(N3CCOC[C@@](C)(O)C3)c3cc(C(F)(F)F)c(-c4c(F)ccc5sc(N)c(C#N)c45)c(F)c3n2)C1 (single isomer, unassigned) [Example 65B]
IC50 [2]: 39.3 nM

CN1CC/C(=C\F)[C@](C)(COc2nc(N3CCCn4nc(C(=O)N(C)C)c(Cl)c4C3)c3cc(C4CC4)c(-c4c(F)ccc5sc(N)c(C#N)c45)c(F)c3n2)C1 (single isomer, unassigned) [Example 161B]
IC50 [1]: 33.5 nM

[2H]C([2H])([2H])N1CC/C(=C\F)[C@](C)(COc2nc(N3Cc4cc(C(=O)N(C)C)nn4CC[C@@H]3C)c3cc(Cl)c(-c4c(F)ccc5sc(N)c(C#N)c45)c(C)c3n2)C1 (single isomer, unassigned) [Example 177A]
IC50 ([1]; Homo sapiens, AGS, 72 h): < 1.5 nM

[2H]C([2H])([2H])N1CC/C(=C\F)[C@](C)(COc2nc(N3CCCn4nc(C(=O)N(C)C)c(Cl)c4C3)c3cc(Cl)c(-c4c(F)ccc5sc(N)c(C#N)c45)c(C)c3n2)C1 (single isomer, unassigned) [Example 179A]
IC50 ([1]; Homo sapiens, AGS, 72 h): 4.2 nM

[2H]C([2H])([2H])N1CC/C(=C\F)[C@](C)(COc2nc(N3Cc4c(F)c(C(=O)N(C)C)nn4CC[C@@H]3C)c3cc(CC)c(-c4c(F)ccc5sc(N)c(C#N)c45)c(F)c3n2)C1 (single isomer, unassigned) [Example 181A]
IC50 ([1]; Homo sapiens, AGS, 72 h): < 1.5 nM

CN1CC[C@H](C(F)F)[C@](C)(COc2nc(N3CCOC[C@@](C)(O)C3)c3cc([N+](=O)[O-])c(-c4cccc5sc(N)c(C#N)c45)c(F)c3n2)C1 [Example 86]
IC50 [2]: 4.5 nM

[2H]C([2H])([2H])N1CC[C@H](C(F)F)[C@](C)(COc2nc(N3CCOC[C@@](C)(O)C3)c3cc([N+](=O)[O-])c(-c4cccc5sc(N)c(C#N)c45)c(F)c3n2)C1 [Example 86]
IC50 ([1]; Homo sapiens, AGS, 72 h): 8.7 nM

CN1CC/C(=C\F)[C@](C)(COc2nc(N3CCOC[C@@](C)(O)C3)c3cc([N+](=O)[O-])c(-c4cccc5sc(N)c(C#N)c45)c(F)c3n2)C1 [Example 87]
IC50 [2]: 9 nM

[2H]C([2H])([2H])N1CC/C(=C\F)[C@](C)(COc2nc(N3CCOC[C@@](C)(O)C3)c3cc(C#N)c(-c4c(F)ccc5sc(N)c(C#N)c45)c(F)c3n2)C1 [Example 88, 7-(2-Amino-3-cyano-5-fluorobenzo[b]thiophene-4-yl)-8-fluoro-2-(((S,E)-4-(fluoromethylene)-3-methyl-1-(methyl-d3)piperidine-3-yl)methoxy)-4-((S)-6-hydroxy-6-methyl-1,4-oxazacycloheptane-4-yl)quinazoline-6-carbonitrile]
IC50 ([2]; Homo sapiens, NCI-H727, 120 h): 23.3 nM

[2H]C([2H])([2H])N1CC[C@H](C(F)F)[C@](C)(COc2nc(N3CCOC[C@@](C)(O)C3)c3cc(C#N)c(-c4c(F)ccc5sc(N)c(C#N)c45)c(F)c3n2)C1 [Example 89, 7-(2-Amino-3-cyano-5-fluorobenzo[b]thiophene-4-yl)-2-(((3S,4S)-4-(difluoromethyl)-3-methyl-1-(methyl-d3)piperidine-3-yl)methoxy)-8-fluoro-4-((S)-6-hydroxy-6-methyl-1,4-oxazacycloheptane-4-yl)quinazoline-6-carbonitrile]
IC50 ([2]; Homo sapiens, NCI-H727, 120 h): 12.4 nM

[2H]C([2H])([2H])N1CC/C(=C\F)[C@](C)(COc2nc(N3CCOC[C@@](C)(O)C3)c3cc(C#N)c(-c4cccc5sc(N)c(C#N)c45)c(F)c3n2)C1 [Example 90, 7-(2-Amino-3-cyanobenzo[b]thiophene-4-yl)-8-fluoro-2-(((S,E)-4-(fluoromethylene)-3-methyl-1-(methyl-d3)piperidine-3-yl)methoxy)-4-((S)-6-hydroxy-6-methyl-1,4-oxazacycloheptane-4-yl)quinazoline-6-carbonitrile]
IC50 ([2]; Homo sapiens, NCI-H727, 120 h): 58.3 nM

CN1CC/C(=C\F)[C@](C)(COc2nc(N3CCCn4nc(C(=O)N(C)C)nc4C3)c3cc(C(F)(F)F)c(-c4cccc5sc(N)c(C#N)c45)c(F)c3n2)C1 [Example 101]
IC50 ([1]; Homo sapiens, AGS, 72 h): 100 nM

CN1CC/C(=C\F)[C@](C)(COc2nc3c(F)c(-c4cccc5sc(N)c(C#N)c45)c(Cl)cc3c(N3CCCn4nc(C(=O)N(C)C)cc4C3)c2C#N)C1 [Example 102]
IC50 ([2]; Homo sapiens, NCI-H727, 120 h): 4270 nM

CN1CC/C(=C\F)[C@](C)(COc2nc(N3CCCn4nc(C(=O)N(C)C)cc4C3)c3cc(C#N)c(-c4cccc5sc(N)c(C#N)c45)c(F)c3n2)C1 [Example 103]
IC50 ([1]; Homo sapiens, AGS, 72 h): 301 nM

CN1CCC(=CF)C(C)(COc2nc(N3CCC(C#N)C(O)C3)c3cc(C(F)(F)F)c(-c4cccc5sc(N)c(C#N)c45)c(F)c3n2)C1 (stereo not drawn) [Example 155]
IC50 [2]: 21 nM
